In ChEMBL document CHEMBL1833792, “Synthesis of glycoconjugate carbonic anhydrase inhibitors by ruthenium-catalysed azide-alkyne 1,3-dipolar cycloaddition” (Bioorg Med Chem Lett, 2011):

Legend:
[1] = Selectivity ratio of Ki for carbonic anhydrase 2 to Ki for carbonic anhydrase 9
[2] = target: Carbonic anhydrase 2 (Homo sapiens) (UniProt P00918)
Description: Inhibition of recombinant carbonic anhydrase 2 by stopped flow CO2 hydration assay

[3] = Selectivity ratio of Ki for carbonic anhydrase 1 to Ki for carbonic anhydrase 9
[4] = target: Carbonic anhydrase 1 (Homo sapiens) (UniProt P00915)
Description: Inhibition of recombinant carbonic anhydrase 1 by stopped flow CO2 hydration assay

[5] = target: Carbonic anhydrase 9 (Homo sapiens) (UniProt Q16790)
Description: Inhibition of recombinant carbonic anhydrase 9 by stopped flow CO2 hydration assay

[6] = Selectivity ratio of Ki for carbonic anhydrase 1 to Ki for carbonic anhydrase 2

Sequence of Carbonic anhydrase 1 (Homo sapiens) (P00915 2-261 limits assumed): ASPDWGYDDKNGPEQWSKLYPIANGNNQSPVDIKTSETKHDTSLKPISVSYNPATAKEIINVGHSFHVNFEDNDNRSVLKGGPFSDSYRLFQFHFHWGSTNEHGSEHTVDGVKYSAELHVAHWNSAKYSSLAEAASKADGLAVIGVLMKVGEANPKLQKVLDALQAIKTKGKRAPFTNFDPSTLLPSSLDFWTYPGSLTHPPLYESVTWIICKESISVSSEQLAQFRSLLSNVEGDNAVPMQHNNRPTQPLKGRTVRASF

Structure (SMILES) | Ratio Ki [1] | Kis [2] | Ratio Ki [3] | Kis [4] | Kis [5] | Ratio Ki [6]
NS(=O)(=O)c1ccc(-c2cnnn2[C@@H]2O[C@H](CO)[C@H](O)[C@H](O)[C@H]2O)cc1 | 1.7 | 13.9 nM | 9.4 | 79 nM | 8.4 nM | –
COC(=O)[C@H]1O[C@@H](n2nncc2-c2ccc(S(N)(=O)=O)cc2)[C@H](OC(C)=O)[C@@H](OC(C)=O)[C@@H]1OC(C)=O | 0.4 | 3.1 nM | 0.45 | 3.5 nM | 7.7 nM | –
NS(=O)(=O)c1ccc(-c2cnnn2[C@@H]2OC[C@@H](O)[C@@H](O)[C@@H]2O)cc1 | 0.18 | 8.9 nM | 1.7 | 83 nM | 48.3 nM | –
CC(=O)OC[C@H]1O[C@@H](n2nncc2-c2ccc(S(N)(=O)=O)cc2)[C@H](OC(C)=O)[C@@H](OC(C)=O)[C@H]1OC(C)=O | 0.33 | 2.4 nM | 9.7 | 71 nM | 7.3 nM | –
NS(=O)(=O)c1ccc(-c2cnnn2[C@@H]2O[C@H](CO)[C@@H](O[C@H]3O[C@H](CO)[C@@H](O)[C@H](O)[C@H]3O)[C@H](O)[C@H]2O)cc1 | 0.53 | 4.6 nM | 0.56 | 4.9 nM | 8.7 nM | –

More lines, now with the values ahead:

Ratio Ki [1] | Kis [2] | Ratio Ki [3] | Kis [4] | Kis [5] | Ratio Ki [6] | Structure (SMILES)
0.04 | 2.9 nM | 64 | 4390 nM | 68.3 nM | 1510 | CC(=O)O[C@H]1[C@H](OC(C)=O)[C@H](OC(C)=O)CO[C@H]1n1nncc1-c1ccc(S(N)(=O)=O)cc1
0.85 | 6.3 nM | 0.91 | 6.7 nM | 7.4 nM | – | CC(=O)OC[C@H]1O[C@@H](n2nncc2-c2ccc(S(N)(=O)=O)cc2)[C@H](OC(C)=O)[C@@H](OC(C)=O)[C@@H]1O[C@H]1O[C@H](COC(C)=O)[C@@H](OC(C)=O)[C@H](OC(C)=O)[C@H]1OC(C)=O
5 | 163 nM | 42.7 | 1360 nM | 32.6 nM | – | CC(=O)OC[C@H]1O[C@@H](n2nncc2-c2ccc(S(N)(=O)=O)cc2)[C@H](OC(C)=O)[C@@H](OC(C)=O)[C@@H]1OC(C)=O
1.1 | 7.5 nM | 11 | 74 nM | 7 nM | – | NS(=O)(=O)c1ccc(-c2cnnn2[C@@H]2O[C@H](CO)[C@@H](O)[C@H](O)[C@H]2O)cc1
